Laboratory results taken from patent publication US8349824B2, “Triazolopyridine compounds” (Hoffmann-La Roche Inc., priority 2010, dated 2013).

How the values were obtained:
human PDE10A full length = biological target: T1, human PDE10A full length (Homo sapiens, UniProt Q9Y233); assay: PDE10A Scintillation Proximity Assay (SPA), human PDE10A full length assay; format: biochemical; details: 50 nM cGMP + 50 nM [3H]-cGMP, 20 minutes at room temperature, read-out: PDE10A inhibition IC50
T1 construct: purchased Enzo Life Science, Lausen, Switzerland SE-534
T1 sequence (Q9Y233 1-779 isoform Q9Y233-1): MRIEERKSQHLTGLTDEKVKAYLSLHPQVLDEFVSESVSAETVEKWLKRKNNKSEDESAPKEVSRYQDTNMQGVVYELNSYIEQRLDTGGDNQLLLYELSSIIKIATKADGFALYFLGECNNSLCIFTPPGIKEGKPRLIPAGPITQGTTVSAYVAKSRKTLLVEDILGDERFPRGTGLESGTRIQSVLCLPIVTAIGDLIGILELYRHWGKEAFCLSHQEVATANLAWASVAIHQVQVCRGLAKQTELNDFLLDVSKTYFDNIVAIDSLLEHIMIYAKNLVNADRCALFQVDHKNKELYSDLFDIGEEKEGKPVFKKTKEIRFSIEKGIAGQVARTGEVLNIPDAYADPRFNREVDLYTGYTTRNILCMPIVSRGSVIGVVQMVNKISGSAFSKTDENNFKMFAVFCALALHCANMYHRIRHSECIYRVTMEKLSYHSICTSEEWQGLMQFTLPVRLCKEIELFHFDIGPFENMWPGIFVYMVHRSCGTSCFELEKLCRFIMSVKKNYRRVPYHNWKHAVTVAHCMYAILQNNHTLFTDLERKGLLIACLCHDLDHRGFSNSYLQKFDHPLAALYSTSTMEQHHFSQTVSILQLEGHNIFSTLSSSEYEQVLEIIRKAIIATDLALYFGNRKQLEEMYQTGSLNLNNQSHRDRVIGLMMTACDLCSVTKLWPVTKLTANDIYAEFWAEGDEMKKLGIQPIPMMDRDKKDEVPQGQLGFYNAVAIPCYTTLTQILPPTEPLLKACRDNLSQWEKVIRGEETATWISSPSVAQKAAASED
Outline: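 SPA format with full-length enzyme in 20 mM HEPES pH 7.5, 10 mM MgCl2, 0.05 mg/ml BSA, substrate 50 nM cGMP plus 50 nM [3H]-cGMP. Reaction started with substrate, run 20 min at room temperature, stopped with YSi-SPA beads in zinc sulphate. IC50 from scintillation counts over an inhibitor concentration range.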

SMILES	IC50 (human PDE10A full length)	melting point
CC(C)c1nc2cc(NC(=O)c3c(C(=O)N4CCCC4)cnn3C)ccn2n1 [Example 34, N-(2-isopropyl-[1,2,4]triazolo[1,5-a]pyridin-7-yl)-1-methyl-4-(pyrrolidine-1-carbonyl)-1H-pyrazole-5-carboxamide]	28.3 nM	141 to 143 °C
CN(C)c1nc2cc(NC(=O)c3c(C(=O)N4CCC4)cnn3C)ccn2n1 [Example 35, 4-(Azetidine-1-carbonyl)-N-(2-(dimethylamino)-[1,2,4]triazolo[1,5-a]pyridin-7-yl)-1-methyl-1H-pyrazole-5-carboxamide]	7.39 nM	240 to 241 °C
CN(C)c1nc2cc(NC(=O)c3c(C(=O)N4CCOCC4)cnn3C)ccn2n1 [Example 36, N-(2-(dimethylamino)-[1,2,4]triazolo[1,5-a]pyridin-7-yl)-1-methyl-4-(morpholine-4-carbonyl)-1H-pyrazole-5-carboxamide]	43.5 nM	196 to 198 °C
CN(C)c1nc2cc(NC(=O)c3c(C(=O)N4CCCC4)cnn3C)ccn2n1 [Example 37, N-(2-(dimethylamino)-[1,2,4]triazolo[1,5-a]pyridin-7-yl)-1-methyl-4-(pyrrolidine-1-carbonyl)-1H-pyrazole-5-carboxamide]	4.46 nM	199 to 201 °C
CN(C)c1nc2cc(NC(=O)c3c(C(=O)N4CC(F)C4)cnn3C)ccn2n1 [Example 38, N-(2-(dimethylamino)-[1,2,4]triazolo[1,5-a]pyridin-7-yl)-4-(3-fluoroazetidine-1-carbonyl)-1-methyl-1H-pyrazole-5-carboxamide]	19.6 nM	243 to 244 °C
Cn1ncc(C(=O)N2CCC2)c1C(=O)Nc1ccn2nc(-c3cccnc3)nc2c1 [Example 44, 4-(Azetidine-1-carbonyl)-1-methyl-N-(2-(pyridin-3-yl)-[1,2,4]triazolo[1,5-a]pyridin-7-yl)-1H-pyrazole-5-carboxamide]	5.79 nM	253 to 254 °C
Cn1ncc(C(=O)N2CCOCC2)c1C(=O)Nc1ccn2nc(-c3cccnc3)nc2c1 [Example 45, 1-Methyl-4-(morpholine-4-carbonyl)-N-(2-(pyridin-3-yl)-[1,2,4]triazolo[1,5-a]pyridin-7-yl)-1H-pyrazole-5-carboxamide]	4.29 nM	218 to 220 °C
Cn1ncc(C(=O)N2CCCC2)c1C(=O)Nc1ccn2nc(-c3cccnc3)nc2c1 [Example 46, 1-Methyl-N-(2-(pyridin-3-yl)-[1,2,4]triazolo[1,5-a]pyridin-7-yl)-4-(pyrrolidine-1-carbonyl)-1H-pyrazole-5-carboxamide]	1.17 nM	226 to 228 °C
Cn1ncc(C(=O)N2CC(F)C2)c1C(=O)Nc1ccn2nc(-c3cccnc3)nc2c1 [Example 47, 4-(3-Fluoroazetidine-1-carbonyl)-1-methyl-N-(2-(pyridin-3-yl)-[1,2,4]triazolo[1,5-a]pyridin-7-yl)-1H-pyrazole-5-carboxamide]	1.24 nM	247 to 249 °C
CC(C)c1nc2cc(NC(=O)c3c(C(=O)N4CC(F)C4)cnn3C)ccn2n1 [Example 51, 4-(3-Fluoro-azetidine-1-carbonyl)-2-methyl-2H-pyrazole-3-carboxylic acid (2-isopropyl-[1,2,4]triazolo[1,5-a]pyridin-7-yl)-amide]	42 nM	226 to 227 °C

The remaining compounds from weak to strong by IC50 (human PDE10A full length), led by results:

IC50 (human PDE10A full length)	melting point	SMILES
57.4 nM	222 to 224 °C	CN(C(=O)c1cnn(C)c1C(=O)Nc1ccn2nc(N3CCOCC3)nc2c1)C1CCCC1 [Example 52, N4-cyclopentyl-N4,1-dimethyl-N5-(2-morpholino-[1,2,4]triazolo[1,5-a]pyridin-7-yl)-1H-pyrazole-4,5-dicarboxamide]
47.3 nM	226 to 227 °C	CC(C)c1nc2cc(NC(=O)c3c(C(=O)N4CCC4)cnn3C)ccn2n1 [Example 50, 4-(Azetidine-1-carbonyl)-2-methyl-2H-pyrazole-3-carboxylic acid (2-isopropyl-[1,2,4]triazolo[1,5-a]pyridin-7-yl)-amide]
40.5 nM	206 to 208 °C	Cn1ncc(C(=O)N2CCOCC2)c1C(=O)Nc1ccn2nc(N3CCOCC3)nc2c1 [Example 29, 1-Methyl-4-(morpholine-4-carbonyl)-N-(2-morpholino-[1,2,4]triazolo[1,5-a]pyridin-7-yl)-1H-pyrazole-5-carboxamide]
22.4 nM	165 to 167 °C	CCN(CC)C(=O)c1cnn(C)c1C(=O)Nc1ccn2nc(N3CCOCC3)nc2c1 [Example 39, N4,N4-diethyl-1-methyl-N5-(2-morpholino-[1,2,4]triazolo[1,5-a]pyridin-7-yl)-1H-pyrazole-4,5-dicarboxamide]
7.14 nM	237 to 240 °C	CN(C)C(=O)c1cnn(C)c1C(=O)Nc1ccn2nc(N3CCOCC3)nc2c1 [Example 40, N4,N4,1-trimethyl-N5-(2-morpholino-[1,2,4]triazolo[1,5-a]pyridin-7-yl)-1H-pyrazole-4,5-dicarboxamide]
6.68 nM	201 to 203 °C	CCN(C)C(=O)c1cnn(C)c1C(=O)Nc1ccn2nc(N3CCOCC3)nc2c1 [Example 41, N4-ethyl-N4,1-dimethyl-N5-(2-morpholino-[1,2,4]triazolo[1,5-a]pyridin-7-yl)-1H-pyrazole-4,5-dicarboxamide]
1.27 nM	> 250 °C	Cn1ncc(C(=O)N2CCC2)c1C(=O)Nc1cc2nc(-c3ccccc3)nn2cc1F [Example 30, 4-(Azetidine-1-carbonyl)-N-(6-fluoro-2-phenyl-[1,2,4]triazolo[1,5-a]pyridin-7-yl)-1-methyl-1H-pyrazole-5-carboxamide]
0.98 nM	224 to 225 °C	Cn1ncc(C(=O)N2CCOCC2)c1C(=O)Nc1cc2nc(-c3ccccc3)nn2cc1F [Example 32, 2-Methyl-4-(morpholine-4-carbonyl)-2H-pyrazole-3-carboxylic acid (6-fluoro-2-phenyl-[1,2,4]triazolo[1,5-a]pyridin-7-yl)-amide]
0.98 nM	156 to 157 °C	CN(C(=O)c1cnn(C)c1C(=O)Nc1ccn2nc(-c3ccccc3)nc2c1)C1CC1 [Example 48, 2-Methyl-2H-pyrazole-3,4-dicarboxylic acid 4-(cyclopropyl-methyl-amide)3-[(2-phenyl-[1,2,4]triazolo[1,5-a]pyridin-7-yl)-amide]]
0.84 nM	> 250 °C	CN(CC(F)(F)F)C(=O)c1cnn(C)c1C(=O)Nc1ccn2nc(-c3ccccc3)nc2c1 [Example 49, 2-Methyl-2H-pyrazole-3,4-dicarboxylic acid 4-[methyl-(2,2,2-trifluoro-ethyl)-amide]3-[(2-phenyl-[1,2,4]triazolo[1,5-a]pyridin-7-yl)-amide]]
0.48 nM	250 to 251 °C	Cn1ncc(C(=O)N2CCCC2)c1C(=O)Nc1cc2nc(-c3ccccc3)nn2cc1F [Example 31, N-(6-fluoro-2-phenyl-[1,2,4]triazolo[1,5-a]pyridin-7-yl)-1-methyl-4-(pyrrolidine-1-carbonyl)-1H-pyrazole-5-carboxamide]
